Experimental data: US10508120B2, “TYK2 inhibitors and uses thereof” (Nimbus Lakshmi, Inc., priority 2017, dated 2019)
Where two headings read alike, the source gives them in different places.

Assays:
Tyk2 kinase domain (DH1) = Tyk2 kinase domain (DH1) (Homo sapiens (Human), UniProt P29597); assay: Tyk2 Radioactive Kinase Assay; type: biochemical; conditions: for inhibition at 10 µM: read-out: Tyk2 JH1% Inhibition @ 10 μM
Summary of the method: (§1)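 Each kinase domain is incubated with test compound at 10 μM. Activity is then measured radiometrically and expressed as percent inhibition relative to uninhibited enzyme.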

[1] = target: human TYK2 (JH2domain-pseudokinase) (Homo sapiens (Human), UniProt P29597); assay: TYK2 JH2 Domain Binding Assay (KINOMEscan)
Sequence of human TYK2 (JH2domain-pseudokinase) (P29597 556-888): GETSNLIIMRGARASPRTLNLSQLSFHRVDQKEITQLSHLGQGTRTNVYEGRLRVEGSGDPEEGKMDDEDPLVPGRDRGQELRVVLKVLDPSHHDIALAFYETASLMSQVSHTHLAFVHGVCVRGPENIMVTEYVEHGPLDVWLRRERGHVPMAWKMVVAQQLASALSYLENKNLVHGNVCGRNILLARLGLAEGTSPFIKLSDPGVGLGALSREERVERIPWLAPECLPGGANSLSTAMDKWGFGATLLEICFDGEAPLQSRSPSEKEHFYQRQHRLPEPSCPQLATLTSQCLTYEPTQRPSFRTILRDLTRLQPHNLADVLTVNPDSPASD
Summary of the method: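 Displacement of a DNA-tagged TYK2 JH2 fusion (human, aa G556–D888, HEK293 extract, <0.1 nM) from ligand-coated beads over 1 h at RT; binding buffer PBS/0.05% Tween 20/10 mM DTT/0.1% BSA.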

JAK2 kinase domain (JH1) = JAK2 kinase domain (JH1) (Homo sapiens (Human), UniProt O60674); assay: JAK2 Radioactive Kinase Assay; type: biochemical; conditions: for inhibition at 10 µM: read-out: JAK2 JH1% Inhibition @ 10 μM
Sequence of JAK2 kinase domain (JH1) (O60674 849-1124): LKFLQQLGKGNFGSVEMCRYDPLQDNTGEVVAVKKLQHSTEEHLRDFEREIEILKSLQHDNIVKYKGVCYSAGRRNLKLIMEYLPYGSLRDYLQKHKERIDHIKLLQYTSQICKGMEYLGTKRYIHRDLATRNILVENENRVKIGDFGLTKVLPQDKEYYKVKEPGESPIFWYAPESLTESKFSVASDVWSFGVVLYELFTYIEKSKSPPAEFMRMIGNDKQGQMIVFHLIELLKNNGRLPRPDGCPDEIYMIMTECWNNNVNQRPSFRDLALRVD
Summary of the method: as §1

Sequence of Tyk2 kinase domain (DH1) (P29597 897-1176): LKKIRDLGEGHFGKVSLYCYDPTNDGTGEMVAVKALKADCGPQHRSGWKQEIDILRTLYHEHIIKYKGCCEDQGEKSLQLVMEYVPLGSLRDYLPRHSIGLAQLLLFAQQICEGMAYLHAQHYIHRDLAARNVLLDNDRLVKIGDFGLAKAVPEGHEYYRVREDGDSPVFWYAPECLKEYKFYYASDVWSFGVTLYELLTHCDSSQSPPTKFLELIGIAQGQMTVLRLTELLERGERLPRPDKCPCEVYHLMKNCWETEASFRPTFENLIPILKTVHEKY

Row | SMILES | inhibition at 10 µM (Tyk2 kinase domain (DH1); compound at 10 μM, ATP 10 μM) [%] | Kd [1] [nM] | inhibition at 10 µM (JAK2 kinase domain (JH1); compound at 10 μM, ATP 10 μM) [%] | Tyk2 JH1% Inhibition @ 10 μM (Tyk2 kinase domain (DH1); compound at 10 μM, ATP 10 μM) | JAK2 JH1% Inhibition @ 10 μM (JAK2 kinase domain (JH1); compound at 10 μM, ATP 10 μM) | inhibition at 10 µM (Tyk2 kinase domain (DH1); 10 μM compound, 10 μM ATP) [%] | inhibition at 10 µM (JAK2 kinase domain (JH1); 10 μM compound, 10 μM ATP) [%]
1 | CNc1cc(-c2ccn(-c3ccccc3)n2)nc2c(C(N)=O)cnn12 [I-39, 7-(methylamino)-5-(1-phenyl-1H-pyrazol-3-yl)pyrazolo[1,5-a]pyrimidine-3-carboxamide] | < 50 | 1 to 10 | < 50 |  |  |  | 
2 | CNc1cc(Nc2cccc([C@@H]3CCCOC3)n2)nc2c(C(=O)N[C@@H]3CC[C@@H]3O)cnn12 [I-643] |  | 0.2 to 1 |  | A (percent inhibition at 10 μM lower than 50) | A (percent inhibition at 10 μM lower than 50) |  | 
3 | CNc1cc(Nc2cccn(-c3ccc(C(=O)N4CCCC4)cn3)c2=O)nc2c(C(N)=O)cnn12 [I-45] | < 50 | < 0.2 | < 50 |  |  |  | 
4 | CNc1cc(Nc2cccn(C3=NC(C)(C)CS3)c2=O)nc2c(C(=O)N[C@@H]3C[C@@H]3F)cnn12 [I-526] | < 50 | 0.2 to 1 | < 50 |  |  |  | 
5 | CNc1cc(Nc2cccn([C@H]3C[C@@H]3F)c2=O)nc2c(C(=O)NCC(C)(C)CO)cnn12 [I-1060] |  | < 0.2 |  |  |  | < 50 | < 50
6 | CNc1cc(Nc2cccn(-c3cccc(C(C)(C)O)n3)c2=O)nc2c(C(=O)NC3CC3)cnn12 [I-155] | < 50 | < 0.2 | < 50 |  |  |  | 
7 | CNc1cc(Nc2cccn(CCOC3CC3)c2=O)nc2c(C(=O)N[C@@H]3CC[C@H]3O)cnn12 [I-513] |  | < 0.2 |  | A (percent inhibition at 10 μM lower than 50) | A (percent inhibition at 10 μM lower than 50) |  | 
8 | CNc1cc(Nc2cccn([C@H]3CCCC[C@H]3O)c2=O)nc2c(C(=O)N[C@H]3CC[C@@H]3OC)cnn12 [I-1058] |  | 0.2 to 1 |  |  |  | < 50 | < 50
9 | CNc1cc(Nc2cccn([C@H]3CCC[C@@H](OC)C3)c2=O)nc2c(C(=O)N[C@H]3CC[C@@H]3O)cnn12 [I-1124] |  | < 0.2 |  |  |  | < 50 | < 50
10 | COc1ncccc1Nc1cc(NCCN2CCOCC2)n2ncc(C(=O)N[C@@H]3C[C@@H]3F)c2n1 (stereo in doubt) [I-388, N-((1R,2S)-2-fluorocyclopropyl)-5-((2-methoxypyridin-3-yl)amino)-7-((2-morpholinoethyl)amino)pyrazolo[1,5-a]pyrimidine-3-carboxamide] | < 50 | 0.2 to 1 | < 50 |  |  |  | 
11 | CNc1cc(Nc2cccnc2C(C)(F)F)nc2c(C(=O)N[C@H]3C[C@H]3F)cnn12 [I-300] | < 50 | 0.2 to 1 | < 50 |  |  |  | 
12 | CNc1cc(-c2cn(CCN3CCN(C)CC3)c3ncccc23)nc2c(C(=O)N[C@@H]3CC[C@H]3O)cnn12 [I-921, N-((1R,2R)-2-hydroxycyclobutyl)-7-(methylamino)-5-(1-(2-(4-methylpiperazin-1-yl)ethyl)-1H-pyrrolo[2,3-b]pyridin-3-yl)pyrazolo[1,5-a]pyrimidine-3-carboxamide] |  | 0.2 to 1 |  |  |  | < 50 | < 50
13 | CNc1cc(Nc2cccn([C@H]3CCN(CCF)C3)c2=O)nc2c(C(=O)N[C@@H]3C[C@@H]3F)cnn12 [I-934] |  | < 0.2 |  |  |  | < 50 | < 50
14 | CNc1cc(Nc2cc(C)cn(-c3ccnn3C)c2=O)nc2c(C(N)=O)cnn12 [I-75] | < 50 | 0.2 to 1 | < 50 |  |  |  | 
15 | NC(=O)c1cnn2c(N)cc(Nc3cccn([C@H]4CC[C@@H](N5CCOCC5)CC4)c3=O)nc12 [I-76] | < 50 | 1 to 10 | < 50 |  |  |  | 
16 | CNc1cc(Nc2cccc(N3CC[C@@H](OC)C3)n2)nc2c(C(=O)NC3CC3)cnn12 [I-481] | < 50 | 0.2 to 1 | < 50 |  |  |  | 
17 | CNc1cc(Nc2cccn(-c3cccnc3C)c2=O)nc2c(C(=O)NC3CC3)cnn12 [I-812] |  | 1 to 10 |  |  |  | < 50 | < 50

Row | SMILES | inhibition at 10 µM (Tyk2 kinase domain (DH1); compound at 10 μM, ATP 10 μM) [%] | Kd [1] [nM] | inhibition at 10 µM (JAK2 kinase domain (JH1); compound at 10 μM, ATP 10 μM) [%] | Tyk2 JH1% Inhibition @ 10 μM (Tyk2 kinase domain (DH1); compound at 10 μM, ATP 10 μM) | JAK2 JH1% Inhibition @ 10 μM (JAK2 kinase domain (JH1); compound at 10 μM, ATP 10 μM) | inhibition at 10 µM (Tyk2 kinase domain (DH1); 10 μM compound, 10 μM ATP) [%] | inhibition at 10 µM (JAK2 kinase domain (JH1); 10 μM compound, 10 μM ATP) [%]
18 | CNc1cc(-c2cn(C(C)C)c3ncc(Cl)cc23)nc2c(C(=O)NC3CCC3)cnn12 [I-273, 5-(5-chloro-1-isopropyl-1H-pyrrolo[2,3-b]pyridin-3-yl)-N-cyclobutyl-7-(methylamino)pyrazolo[1,5-a]pyrimidine-3-carboamide] | < 50 | 1 to 10 | < 50 |  |  |  | 
19 | CNc1cc(Nc2cccn([C@@H]3CCN(CCC#N)C3)c2=O)nc2c(C(=O)NC3CC3)cnn12 [I-1012] |  | 0.2 to 1 |  |  |  | < 50 | < 50
20 | CNc1cc(Nc2cccnc2OC)nc2c(C(=O)N[C@@H]3CCC[C@@H](O)C3)cnn12 [I-497] |  | < 0.2 |  | A (percent inhibition at 10 μM lower than 50) | A (percent inhibition at 10 μM lower than 50) |  | 
21 | CNc1cc(Nc2cccn(-c3cnn(C)c3F)c2=O)nc2c(C(=O)NC3CC3)cnn12 [I-808] |  | < 0.2 |  |  |  | < 50 | < 50
22 | CNc1cc(Nc2cccn([C@H]3CCC[C@H](O)C3)c2=O)nc2c(C(=O)NC3CC3)cnn12 [I-760] | < 50 | < 0.2 | < 50 |  |  |  | 
23 | CNc1cc(Nc2cccn(-c3ncc(OC)cc3F)c2=O)nc2c(C(=O)NC3CC3)cnn12 [I-672] | < 50 | < 0.2 | < 50 |  |  |  | 
24 | Cc1cc(Nc2cc(N)n3ncc(C(N)=O)c3n2)cc(N2CCCC(O)C2)n1 (stereo in doubt) [I-62, (S)-7-amino-5-((2-(3-hydroxypiperidin-1-yl)-6-methylpyridin-4-yl)amino)pyrazolo[1,5-a]pyrimidine-3-carboxamide] | < 50 | > 10 | < 50 |  |  |  | 
25 | [2H]C([2H])([2H])Oc1ncccc1Nc1cc(NC)n2ncc(C(=O)NCCC3CCCO3)c2n1 (stereo not drawn) [I-419, 5-((2-(methoxy-d3)pyridin-3-yl)amino)-7-(methylamino)-N-(2-(tetrahydrofuran-2-yl)ethyl)pyrazolo[1,5-a]pyrimidine-3-carboxamide] | < 50 | 1 to 10 | < 50 |  |  |  | 
26 | CCCCn1cc(-c2cc(NC)n3ncc(C(=O)N[C@@H]4C[C@@H]4F)c3n2)c2cccnc21 [I-478, 5-(1-butyl-1H-pyrrolo[2,3-b]pyridine-3-yl)-N-((1R,2S)-2-fluorocyclopropyl)-7-(methylamino)pyrazolo[1,5-a]pyrimidine-3-carboxamide] | < 50 | 0.2 to 1 | < 50 |  |  |  | 
27 | CNc1cc(Nc2cccn(C3CCOCC3)c2=O)nc2c(C(=O)N[C@@H]3COC[C@@H]3O)cnn12 [I-674] | < 50 | 0.2 to 1 | < 50 |  |  |  | 
28 | [2H]C([2H])([2H])Oc1ncccc1Nc1cc(NC)n2ncc(C(=O)N[C@@H]3CC[C@@H](O)C3)c2n1 [I-501] | < 50 | < 0.2 | < 50 |  |  |  | 
29 | CNc1cc(Nc2cc(Cl)cn(-c3ncc(C)s3)c2=O)nc2c(C(=O)NC3CC3)cnn12 [I-322] | < 50 | 0.2 to 1 | < 50 |  |  |  | 
30 | CNc1cc(Nc2cccc(-c3cn(C)nc3F)n2)nc2c(C(=O)NC3CC3)cnn12 [I-859] |  | < 0.2 |  |  |  | < 50 | < 50
31 | CNc1cc(Nc2cccnc2OC(F)(F)F)nc2c(C(=O)NC3COC3)cnn12 [I-92] | < 50 | > 10 | < 50 |  |  |  | 
32 | CNc1cc(Nc2cccn([C@H]3CCCOC3)c2=O)nc2c(C(=O)N[C@H]3[C@@H]4COC[C@@H]43)cnn12 [I-651] | < 50 | > 10 | < 50 |  |  |  | 
33 | CNc1cc(Nc2cccn(-c3ccnn3C)c2=O)nc2c(C(=O)NC3CC3)cnn12 [I-327] | < 50 | 0.2 to 1 | < 50 |  |  |  | 
34 | CNc1cc(Nc2cccn(-c3cnn(CC4CCOC4)c3)c2=O)nc2c(C(=O)NC3CC3)cnn12 (stereo not drawn) [I-444] | < 50 | < 0.2 | < 50 |  |  |  | 
